Data from patent US20250345311A1, “CONJUGATE OF POLYPEPTIDE AND SMALL MOLECULE TARGETING KRAS AND ANTI-CANCER APPLICATION THEREOF” (Guangzhou Medical University, priority 2024, published 2025).
Where two headings read alike, the source gives them in different places.

Experiments:
Assay type in all cases: cell-based
H358 cells [1] = assay: cells
Procedure: The cytotoxicity of HGPF, cyclic peptide (CLYDVAGSDKYCGP), FN1-8, and FN1-8 methylamino derivative (FN1-8-CH2-NH2) was detected through CCK8 experiment. The cyclic peptide (CLYDVAGSDKYCGP) has a sequence shown in SEQ ID NO: 4, and it is Cys-Leu-Tyr-Asp-Val-Ala-Gly-Ser-Asp Lys-Tyr-Cys-Gly-Pro. The experimental steps are as follows:
8.1 Plate laying: Inoculate H358 cells in logarithmic growth phase into a 96-well plate (100 μl/well), with 6 replicate wells per group and a cell count of 5×10^3 cells per well, then place and culture in a 37° C., 5% CO2 incubator for 12 hours.
8.2 Use different concentrations of HGPF, HGPF+FAPα, cyclic peptides, FN1-8, and FN1-8-CH2-NH2 to treat with the experimental group. First, prepare the above drugs into a 100 mM mother solution, and then set […], namely 100 μM, 50 μM, 25 μM, 12.5 μM, 6.25 μM, 3.125 μM, 1.5625 μM, and 0.78125 μM, wherein the HGPF+FAPα group was the group added FAPα (1 μM) after adding the above concentrations of HGPF to simulate the tumor tissue microenvironment.
8.3 After 24 hours, wash the cells twice with PBS, then add 100 μL of pre-mixed CCK8 solution (culture medium:CCK8 working solution=9:1) to each well, and then continue to culture in a 37° C., 5% CO2 incubator for 2 hours.
8.4 Use a microplate reader to measure the absorbance D (2) of each well at a wavelength of 450 nm. Analyze the D (2) values of the blank group, the control group, and the experimental group to determine cellular activity. The cell survival rate reflects the cytotoxicity of drugs. The groups are as follows: • Experimental group (culture medium containing cells, CCK-8, test drug) • Control group (culture medium containing cells, CCK-8, without test drug) • Blank group (culture medium without cells and test substance, containing CCK-8)

KRAS G12C = target: T1, KRAS G12C (Homo sapiens, UniProt P01116, G12C); assay: Specificity of HGP-FITC targeting KRAS G12C (pre-blocking, flow cytometry); conditions: then 25 μM HGP-FITC, 8 hours
T1 construct: endogenous in cells; host or cells: H358 lung cancer cells
Procedure: 6.3 Based on the flow cytometry results, select a concentration of 25 μM for subsequent experiments. The lung cancer cell line H358 (carrying KRAS G12C mutation) was first blocked with 1:1000 KRAS antibody or 10 μM Sotorasib (KRAS G12C inhibitor) for 24 hours, and then incubated with 25 μM HGP-FITC. Fluorescence uptake was detected by flow cytometry after 8 hours.

[2] = system: lung cancer cell line H358 (carrying KRAS G12C mutation); assay: Uptake of HGP-FITC by lung cancer cells, flow cytometry; conditions: different concentrations, 8 hours
Procedure: 6.2 Incubate lung cancer cell line H358 (carrying KRAS G12C mutation) with different concentrations of HGP-FITC, and detect by flow cytometry after 8 hours.

H358 cells [3] = assay: Scratch test, proliferation and migration of lung cancer cells; conditions: H358, 10 μM, 24 hours
Procedure: The inhibitory effects of the conjugate HGPF and cyclic peptide (CLYDVAGSDKYCGP) on the proliferation and migration of lung cancer cells were detected by scratch test. The experimental steps are as follows:
9.1 Plate laying: First, mark 3 positioning lines at the bottom of the 6-well plate, then inoculate H358 cells in logarithmic growth phase onto the 6-well plate (2 ml/well), with a cell count of 1×10^6 per well, and then culture in a 37° C., 5% CO2 incubator for 24 hours.
9.2 Marking: Place the plate cover above the 6-well plate, use a 100μ pipettor tip to draw 3 straight lines vertically for each hole; then wash 4 times with PBS to wash away floating cell debris.
9.3 Administration: Replace the culture medium with a medium containing 2% serum, administer 10 μM of the drug to each group, take photos at 0 and 24 hours, observe scratch healing, and analyze with ImageJ software.

T1 sequence (P01116 1-188 isoform P01116-2 G12C): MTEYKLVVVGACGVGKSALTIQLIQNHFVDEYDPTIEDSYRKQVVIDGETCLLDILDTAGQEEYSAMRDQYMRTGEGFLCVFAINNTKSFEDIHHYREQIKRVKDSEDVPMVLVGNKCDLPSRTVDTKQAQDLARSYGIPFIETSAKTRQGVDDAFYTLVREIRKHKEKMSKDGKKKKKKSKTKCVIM

For `O=C(NCc1ccc(O)cc1)C1C(c2ccccc2)=NN(c2ccccc2)C1c1ccccc1` (stereo not drawn) [FN1-8, reference compound], the “cytotoxicity against lung cancer cells” value (H358 cells [1]) was “good cytotoxicity”, the “effect of further increasing the concentration on cell viability” value (H358 cells [1]; H358, 24 hours, up to 100 μM) was “cannot achieve the effect of completely inhibiting cell viability” and the IC50 (H358 cells [1]; Homo sapiens, NCI-H358, 24 h) was 4.34 µM.

`NCc1ccc(CNC(=O)C2C(c3ccccc3)=NN(c3ccccc3)C2c2ccccc2)cc1` (stereo not drawn) [FN1-8-CH2-NH2] was tested, and the “cytotoxicity against lung cancer cells” value (H358 cells [1]) was “good cytotoxicity”, the inhibition at 100 µM (H358 cells [1]; Homo sapiens, NCI-H358, 100 μM, 24 hours, read-out: inhibition rate on H358 cells) was 100% and the IC50 (H358 cells [1]; Homo sapiens, NCI-H358, H358, 24 hours, CCK8, read-out: IC50) was 4.68 µM.

`CC(C)C[C@@H]1NC(=O)[C@@H](N)CSSC[C@@H](C(=O)NCC(=O)N2CCC[C@H]2C(=O)NCCCCC(NC(=S)Nc2ccc3c(c2)C(=O)OC32c3ccc(O)cc3Oc3cc(O)ccc32)C(=O)O)NC(=O)[C@H](Cc2ccc(O)cc2)NC(=O)[C@H](CCCCN)NC(=O)[C@H](CC(=O)O)NC(=O)[C@H](CO)NC(=O)CNC(=O)[C@H](C)NC(=O)[C@H](C(C)C)NC(=O)[C@H](CC(=O)O)NC(=O)[C@H](Cc2ccc(O)cc2)NC1=O` (stereo partly drawn) [HGP-FITC] was tested, and the “uptake of HGP-FITC by H358 cells after pre-block with Sotorasib” value (KRAS G12C; 10 μM Sotorasib 24 hours) was “significantly reduced”, the “uptake of HGP-FITC by H358 cells after pre-block with KRAS antibody” value (KRAS G12C; 1:1000 KRAS antibody 24 hours) was “significantly reduced” and the “uptake of HGP-FITC by H358 cells” value [2] was “concentration dependent manner”.

In the case of `CC(C)C[C@@H]1NC(=O)[C@@H](N)CSSC[C@@H](C(=O)NCC(=O)N2CCC[C@H]2C(=O)NCc2ccc(CNC(=O)C3C(c4ccccc4)C(c4ccccc4)=NN3c3ccccc3)cc2)NC(=O)[C@H](Cc2ccc(O)cc2)NC(=O)[C@H](CCCCN)NC(=O)[C@H](CC(=O)O)NC(=O)[C@H](CO)NC(=O)CNC(=O)[C@H](C)NC(=O)[C@H](C(C)C)NC(=O)[C@H](CC(=O)O)NC(=O)[C@H](Cc2ccc(O)cc2)NC1=O` (stereo partly drawn) [HGPF], the “cytotoxicity against lung cancer cells” value (H358 cells [1]) is reported as “weak cytotoxicity”, the IC50 (H358 cells [1]; 24 h) is reported as 3.66 µM and the “inhibitory effect on proliferation and migration of tumor cells” value (“inhibitory effect” for short) (H358 cells [3]; with FAPα) is reported as “significantly inhibited”. For the same molecule, the “inhibitory effect” value (H358 cells [3]; without FAPα) was “no inhibitory effect”.

For `CC(C)C[C@@H]1NC(=O)[C@@H](N)CSSC[C@@H](C(=O)NCC(=O)N2CCC[C@H]2C(=O)O)NC(=O)[C@H](Cc2ccc(O)cc2)NC(=O)[C@H](CCCCN)NC(=O)[C@H](CC(=O)O)NC(=O)[C@H](CO)NC(=O)CNC(=O)[C@H](C)NC(=O)[C@H](C(C)C)NC(=O)[C@H](CC(=O)O)NC(=O)[C@H](Cc2ccc(O)cc2)NC1=O` [cyclic peptide, Cys-Leu-Tyr-Asp-Val-Ala-Gly-Ser-Asp Lys-Tyr-Cys-Gly-Pro], the “cytotoxicity against lung cancer cells” value (H358 cells [1]) was “weak cytotoxicity” and the “inhibitory effect” value (H358 cells [3]; without FAPα) was “no inhibitory effect”.
